Data on ten compounds can be found in PubChem BioAssay (NCI).

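All cell lines were grown in 96-well plates and treated with compound for 48 hours. Definition used: TGI = concentration required for complete inhibition of growth.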 A value given as a limit tells only on which side of the number the result lay.

Some test systems named below: UO-31 renal; SF-268 CNS; SK-MEL-28 melanoma; MALME-3M melanoma; ACHN renal; SK-OV-3 ovarian; SW-620 colon; HL-60(TB) leukemia; DMS 114 small cell lung; OVCAR-8 ovarian; SK-MEL-5 melanoma; UACC-257 melanoma; HCT-116 colon; LOX IMVI melanoma.
Assay in all cases: inhibition of tumour cell growth, NCI panel, 48 h

As for `COc1cc(CCCC(O)COc2cccc3c2C2(O)CCCCCC32)cc(OC)c1` (stereo not drawn), the TGI in the assay on UO-31 renal was found to be 28.9 µM; in the assay on SF-268 CNS, 32.9 µM; in the assay with SK-MEL-28 melanoma it was 31.1 µM; with MALME-3M melanoma, 31.8 µM; with ACHN renal, 29.4 µM; in the assay on SK-OV-3 ovarian, 38.5 µM. The TGI with SW-620 colon was found to be 31.6 µM; with HL-60(TB) leukemia it was 45.9 µM; with DMS 114 small cell lung, 23.4 µM; in the assay on OVCAR-8 ovarian it was 37.8 µM; in the assay on SK-MEL-5 melanoma, 20.5 µM; with UACC-257 melanoma, 32.5 µM. For the same compound, the TGI in the assay on HCT-116 colon was 31.5 µM.

As for `O=S1c2ccc(Cl)cc2CC(SSC2Cc3cc(Cl)ccc3S(=O)c3ccccc32)c2ccccc21` (stereo not drawn), the TGI in the assay on UO-31 renal, in the assay with SF-268 CNS, with SK-MEL-28 melanoma, in the assay on MALME-3M melanoma, in the assay on ACHN renal and with SK-OV-3 ovarian was above 100 µM in each case. Further, the TGI in the assay on SW-620 colon, with HL-60(TB) leukemia, in the assay on DMS 114 small cell lung, in the assay with LOX IMVI melanoma, in the assay on OVCAR-8 ovarian and with SK-MEL-5 melanoma was above 100 µM throughout. Moreover, the TGI in the assay with UACC-257 melanoma and in the assay with HCT-116 colon was above 100 µM throughout.

With `COC(=O)/C(=C/CC(N=C(c1ccccc1)c1ccccc1)C(=O)OC)N=C(c1ccccc1)c1ccccc1` (stereo not drawn), the TGI with UO-31 renal, in the assay on SF-268 CNS, in the assay with SK-MEL-28 melanoma, in the assay on MALME-3M melanoma, in the assay on ACHN renal and in the assay with SK-OV-3 ovarian was above 100 µM in each case. In addition, the TGI is above 100 µM with SW-620 colon; above 100 µM in the assay on HL-60(TB) leukemia; 82.1 µM in the assay with DMS 114 small cell lung; above 100 µM with LOX IMVI melanoma; above 100 µM with OVCAR-8 ovarian; above 100 µM in the assay with SK-MEL-5 melanoma. Also, the TGI in the assay with UACC-257 melanoma and with HCT-116 colon was above 100 µM in each case.

Turning to `CN(CCO)c1nc2c(c(=O)[nH]1)CNCC2`, the TGI with UO-31 renal, with SF-268 CNS, with SK-MEL-28 melanoma, in the assay on MALME-3M melanoma, in the assay on ACHN renal and with SK-OV-3 ovarian was above 100 µM each time. Further, the TGI with SW-620 colon, in the assay with HL-60(TB) leukemia, in the assay on DMS 114 small cell lung, in the assay on LOX IMVI melanoma, in the assay with OVCAR-8 ovarian and in the assay on SK-MEL-5 melanoma was above 100 µM each time. Besides, the TGI in the assay with UACC-257 melanoma and in the assay with HCT-116 colon was above 100 µM each time.

As for `COc1cc(-c2c(C)c(C)nc(OC)c2C#N)cc(OC)c1OC`, the TGI in the assay on UO-31 renal, in the assay on SF-268 CNS, in the assay with SK-MEL-28 melanoma, in the assay with MALME-3M melanoma, in the assay with ACHN renal and in the assay with SK-OV-3 ovarian was above 100 µM each time. Moreover, the TGI with SW-620 colon, in the assay on HL-60(TB) leukemia, with DMS 114 small cell lung, in the assay with OVCAR-8 ovarian, in the assay on SK-MEL-5 melanoma and in the assay on UACC-257 melanoma was above 100 µM throughout. The compound further registered a TGI in the assay on HCT-116 colon above 100 µM.

Take `Cn1c2cccc3nnc4cccc(c4c32)n1C`: the TGI in the assay with UO-31 renal, with SF-268 CNS, in the assay on SK-MEL-28 melanoma, in the assay with MALME-3M melanoma, in the assay on ACHN renal and in the assay with SW-620 colon was above 100 µM throughout. In addition, the TGI in the assay on HL-60(TB) leukemia, with DMS 114 small cell lung, in the assay with LOX IMVI melanoma, with OVCAR-8 ovarian, in the assay with SK-MEL-5 melanoma and in the assay with UACC-257 melanoma was above 100 µM each time. In the assay on HCT-116 colon, the TGI was above 100 µM.

Consider `CSC(=N)N1N=C2c3ccccc3CC[C@@H]2[C@@H]1c1ccccc1`, for which the TGI was determined as 22.4 µM in the assay with UO-31 renal; 49.6 µM in the assay on SF-268 CNS; 29.8 µM in the assay on SK-MEL-28 melanoma; 25.9 µM in the assay on MALME-3M melanoma; 50.2 µM with ACHN renal; 41.6 µM with SK-OV-3 ovarian. Besides, the TGI in the assay with SW-620 colon was determined as 29.9 µM; in the assay on HL-60(TB) leukemia, 34.6 µM; in the assay on DMS 114 small cell lung, 28.7 µM; with LOX IMVI melanoma it was 28.5 µM; with OVCAR-8 ovarian, 29.1 µM; in the assay with UACC-257 melanoma it was 35.3 µM. This compound yielded a TGI in the assay with HCT-116 colon of 17.7 µM.

`O=C1/C(=C/c2ccccc2)CCCC/C1=C\c1ccccc1`: the TGI in the assay with UO-31 renal, with SF-268 CNS, in the assay with SK-MEL-28 melanoma, in the assay with MALME-3M melanoma, in the assay with ACHN renal and in the assay on SK-OV-3 ovarian was above 100 µM in each case. The TGI in the assay on SW-620 colon was above 100 µM; in the assay on DMS 114 small cell lung, above 100 µM; in the assay on LOX IMVI melanoma it was above 100 µM; in the assay with OVCAR-8 ovarian, above 100 µM; in the assay on SK-MEL-5 melanoma, 70.4 µM; with UACC-257 melanoma, above 100 µM. Also, in the assay on HCT-116 colon, the TGI is above 100 µM.

With `CCOC(=O)C1C(c2ccc([N+](=O)[O-])cc2)NC(c2ccc([N+](=O)[O-])cc2)C(C(=O)OC)S1(=O)=O` (stereo not drawn), the TGI in the assay with UO-31 renal, in the assay with SF-268 CNS, in the assay on SK-MEL-28 melanoma, in the assay on MALME-3M melanoma, with ACHN renal and in the assay on SK-OV-3 ovarian was above 100 µM in each case. In addition, the TGI with SW-620 colon, with HL-60(TB) leukemia, in the assay with DMS 114 small cell lung, in the assay with LOX IMVI melanoma, with OVCAR-8 ovarian and in the assay with UACC-257 melanoma was above 100 µM in each case. The TGI with HCT-116 colon was above 100 µM.

For `Cc1c(CCl)c(=O)oc2c(C)c3occ(CCl)c(=O)c3cc12`, the TGI in the assay with UO-31 renal was 31.4 µM; with SF-268 CNS, 71.7 µM; with SK-MEL-28 melanoma it was 35.4 µM; in the assay with MALME-3M melanoma, above 100 µM; in the assay on ACHN renal, above 100 µM; in the assay with SK-OV-3 ovarian, above 100 µM. The TGI with SW-620 colon is above 100 µM; in the assay on HL-60(TB) leukemia, 20.2 µM; in the assay on DMS 114 small cell lung, 41.8 µM; with LOX IMVI melanoma, 30.8 µM; in the assay with OVCAR-8 ovarian, above 100 µM; in the assay with SK-MEL-5 melanoma, above 100 µM. Further, the TGI in the assay on UACC-257 melanoma was above 100 µM.
